# Results as given in ChEMBL document CHEMBL1147043, “Comparative metabolism of radiolabeled muraglitazar in animals and humans by quantitative and qualitative metabolite profiling” (Drug Metab Dispos, 2007).
# Tests used:
# [1] = Biodistribution in orally dosed human feces assessed as O-dealkyl-O-demethyl muraglitazar level by LC/MS analysis; assay type: ADME, organism-based; details: in vivo, po
# [2] = Drug concentration in human urine assessed as recovery of radioactive dose at 20 mg, po after 240 hrs; assay type: ADME, organism-based; details: in vivo
# Plasma [3] = experiment: Biodistribution in orally dosed human plasma assessed as O-demethyl muraglitazar level after 1 hr by LC/MS analysis; assay type: ADME, organism-based; details: in vivo, po
# Hepatocyte [4] = experiment: Metabolic stability in human hepatocytes assessed as 8,12-dihydroxy muraglitazar level by LC/MS analysis relative to control; assay type: ADME, cell-based
# [5] = Biodistribution in orally dosed cynomolgus monkey urine assessed as 9-hydroxy muraglitazar level by LC/MS analysis; assay type: ADME, organism-based, Macaca fascicularis; details: in vivo, po
# [6] = Biodistribution in orally dosed cynomolgus monkey urine assessed as muraglitazar 12-carboxylic acid level by LC/MS analysis; assay type: ADME, organism-based, Macaca fascicularis; details: in vivo, po
# Plasma [7] = experiment: Biodistribution in orally dosed Sprague-Dawley rat plasma assessed as 12-dihydroxy muraglitazar level after 12 hrs by LC/MS analysis; assay type: ADME, organism-based; details: in vivo, po
# Hepatocyte [8] = experiment: Metabolic stability in Sprague-Dawley rat hepatocytes assessed as O-Dealkyl muraglitazar level by LC/MS analysis relative to control; assay type: ADME, cell-based
# Plasma [9] = experiment: Biodistribution in orally dosed human plasma assessed as O-Dealkyl muraglitazar level after 12 hrs by LC/MS analysis; assay type: ADME, organism-based; details: in vivo, po
# Plasma [10] = experiment: Biodistribution in orally dosed cynomolgus monkey plasma assessed as muraglitazar glucuronide level after 12 hrs by LC/MS analysis; assay type: ADME, organism-based, Macaca fascicularis; details: in vivo, po
# Hepatocyte [11] = experiment: Metabolic stability in human hepatocytes assessed as 17-hydroxy-O-demethyl muraglitazar level by LC/MS analysis relative to control; assay type: ADME, cell-based
# Plasma [12] = experiment: Biodistribution in orally dosed Beagle dog plasma assessed as 12-hydroxy-O-demethyl muraglitazar level after 4 hrs by LC/MS analysis; assay type: ADME, organism-based, Canis lupus familiaris; details: in vivo, po
# [13] = Metabolic stability in cynomolgus monkey hepatocytes assessed as 8-hydroxy muraglitazar level by LC/MS analysis relative to control; assay type: ADME, cell-based, Macaca fascicularis, Hepatocyte
# [14] = Biodistribution in orally dosed human feces assessed as 8-hydroxy muraglitazar level by LC/MS analysis; assay type: ADME, organism-based; details: in vivo, po
# [15] = Drug concentration in bile duct-cannulated CD1 mouse bile at 40 mg/kg, po after 24 hrs; assay type: ADME, organism-based; set-up: dose 40 mg/kg, route oral; details: read-out: Drug uptake
# [16] = Metabolic stability in cynomolgus monkey hepatocytes assessed as hydroxyl muraglitazar glucuronide level by LC/MS analysis relative to control; assay type: ADME, cell-based, Macaca fascicularis, Hepatocyte
# Hepatocyte [17] = experiment: Metabolic stability in Sprague-Dawley rat hepatocytes assessed as di-oxygenated muraglitazar level by LC/MS analysis relative to control; assay type: ADME, cell-based
# [18] = Biodistribution in orally dosed Beagle dog feces assessed as 8-hydroxy muraglitazar level by LC/MS analysis; assay type: ADME, organism-based, Canis lupus familiaris; details: in vivo, po
# Plasma [19] = experiment: Biodistribution in orally dosed human plasma assessed as 12-dihydroxy muraglitazar level after 4 hrs by LC/MS analysis; assay type: ADME, organism-based; details: in vivo, po
# [20] = Tmax in Beagle dog at 2 mg/kg, po after 4 hrs; assay type: ADME, organism-based, Canis lupus familiaris; set-up: dose 2 mg/kg, route oral; details: in vivo
# [21] = Fecal excretion of compound in orally dosed cynomolgus monkey within 96 hrs; assay type: ADME, organism-based, Macaca fascicularis; details: faeces, po, read-out: Activity
# Hepatocyte [22] = experiment: Metabolic stability in human hepatocytes assessed as hydroxyl muraglitazar glucuronide level by LC/MS analysis relative to control; assay type: ADME, cell-based
# Hepatocyte [23] = experiment: Metabolic stability in human hepatocytes assessed as muraglitazar 12-carboxylic acid level by LC/MS analysis relative to control; assay type: ADME, cell-based
# Plasma [24] = experiment: Biodistribution in orally dosed Beagle dog plasma assessed as 12-hydroxy-O-demethyl muraglitazar level after 12 hrs by LC/MS analysis; assay type: ADME, organism-based, Canis lupus familiaris; details: in vivo, po
# Plasma [25] = experiment: Biodistribution in orally dosed cynomolgus monkey plasma assessed as O-demethyl muraglitazar glucuronide level after 12 hrs by LC/MS analysis; assay type: ADME, organism-based, Macaca fascicularis; details: in vivo, po
# [26] = Metabolic stability in cynomolgus monkey hepatocytes assessed as 17-hydroxy muraglitazar level by LC/MS analysis relative to control; assay type: ADME, cell-based, Macaca fascicularis, Hepatocyte
# Hepatocyte [27] = experiment: Metabolic stability in human hepatocytes assessed as 8-hydroxy muraglitazar level by LC/MS analysis relative to control; assay type: ADME, cell-based
# Cynomolgus monkey [28] = experiment: Cmax in cynomolgus monkey at 1.9 mg/kg, po after 24 hrs; assay type: ADME, organism-based, Macaca fascicularis; set-up: dose 1.9 mg/kg, route oral; details: in vivo
# [29] = Half life in Sprague-Dawley rat at 10 mg/kg, po after 24 hrs; assay type: ADME, organism-based; set-up: dose 10 mg/kg, route oral; details: in vivo
# Plasma [30] = experiment: Biodistribution in orally dosed cynomolgus monkey plasma assessed as […] muraglitazar level after 12 hrs by LC/MS analysis; assay type: ADME, organism-based, Macaca fascicularis; details: in vivo, po
# Rattus norvegicus [31] = experiment: Biodistribution in orally dosed Sprague-Dawley rat urine assessed as O-dealkyl muraglitazar level by LC/MS analysis; assay type: ADME, organism-based; details: in vivo, po
# [32] = Drug concentration in bile duct-cannulated CD1 mouse feces assessed as recovery of radioactive dose at 40 mg/kg, po after 24 hrs; assay type: ADME, organism-based; set-up: dose 40 mg/kg, route oral; details: in vivo
# [33] = Biodistribution in orally dosed human feces assessed as muraglitazar glucuronide level by LC/MS analysis; assay type: ADME, organism-based; details: in vivo, po
# [34] = Biodistribution in orally dosed Beagle dog feces assessed as 12-hydroxy-O-demethyl muraglitazar level by LC/MS analysis; assay type: ADME, organism-based, Canis lupus familiaris; details: in vivo, po
# [35] = Metabolic stability in CD1 mouse hepatocytes assessed as 8,12-dihydroxy muraglitazar level by LC/MS analysis relative to control; assay type: ADME, cell-based, Hepatocyte
# Plasma [36] = experiment: Biodistribution in orally dosed human plasma assessed as […] muraglitazar level after 4 hrs by LC/MS analysis; assay type: ADME, organism-based; details: in vivo, po
# Rattus norvegicus [37] = experiment: Biodistribution in orally dosed Sprague-Dawley rat urine assessed as 9-hydroxy muraglitazar level by LC/MS analysis; assay type: ADME, organism-based; details: in vivo, po
# Plasma [38] = experiment: Biodistribution in orally dosed human plasma assessed as 12-hydroxy-O-demethyl muraglitazar level after 12 hrs by LC/MS analysis; assay type: ADME, organism-based; details: in vivo, po
# Hepatocyte [39] = experiment: Metabolic stability in Sprague-Dawley rat hepatocytes assessed as 12-hydroxy muraglitazar level by LC/MS analysis relative to control; assay type: ADME, cell-based
# Plasma [40] = experiment: Biodistribution in orally dosed human plasma assessed as muraglitazar 12-carboxylic acid level after 4 hrs by LC/MS analysis; assay type: ADME, organism-based; details: in vivo, po
# [41] = Metabolic stability in CD1 mouse hepatocytes assessed as hydroxyl-O-demethyl muraglitazar glucuronide level by LC/MS analysis relative to control; assay type: ADME, cell-based, Hepatocyte
# Plasma [42] = experiment: Biodistribution in orally dosed human plasma assessed as muraglitazar glucuronide level after 1 hr by LC/MS analysis; assay type: ADME, organism-based; details: in vivo, po
# Plasma [43] = experiment: Biodistribution in orally dosed human plasma assessed as O-demethyl muraglitazar level after 4 hrs by LC/MS analysis; assay type: ADME, organism-based; details: in vivo, po
# Cynomolgus monkey [44] = experiment: AUC (0 to T) in cynomolgus monkey at 1.9 mg/kg, po after 24 hrs; assay type: ADME, organism-based, Macaca fascicularis, Plasma; set-up: time < 24 hr, dose 1.9 mg/kg, route oral; details: in vivo
# [45] = Drug concentration in human bile at 20 mg/kg, po after 48 hrs; assay type: ADME, organism-based; set-up: dose 20 mg/kg, route oral; details: in vivo
# Hepatocyte [46] = experiment: Metabolic stability in human hepatocytes assessed as 8-hydroxy-O-demethyl muraglitazar level by LC/MS analysis relative to control; assay type: ADME, cell-based
# Rattus norvegicus [47] = experiment: Biodistribution in orally dosed Sprague-Dawley rat feces assessed as 8-hydroxy-O-demethyl muraglitazar level by LC/MS analysis; assay type: ADME, organism-based; details: in vivo, po
# Plasma [48] = experiment: Biodistribution in orally dosed cynomolgus monkey plasma assessed as 8-hydroxy-O-demethyl muraglitazar level after 4 hrs by LC/MS analysis; assay type: ADME, organism-based, Macaca fascicularis; details: in vivo, po
# [49] = Biodistribution in orally dosed cynomolgus monkey feces assessed as imide derivative of muraglitazar level by LC/MS analysis; assay type: ADME, organism-based, Macaca fascicularis; details: in vivo, po
# Hepatocyte [50] = experiment: Metabolic stability in human hepatocytes assessed as 9-hydroxy muraglitazar level by LC/MS analysis relative to control; assay type: ADME, cell-based
# Plasma [51] = experiment: Biodistribution in orally dosed cynomolgus monkey plasma assessed as 12,17-dihydroxy muraglitazar level after 4 hrs by LC/MS analysis; assay type: ADME, organism-based, Macaca fascicularis; details: in vivo, po
# Plasma [52] = experiment: Biodistribution in orally dosed Beagle dog plasma assessed as 12-hydroxy-O-demethyl muraglitazar level after 1 hr by LC/MS analysis; assay type: ADME, organism-based, Canis lupus familiaris; details: in vivo, po
# [53] = Drug concentration in human urine at 10 mg/kg, po after 8 hrs; assay type: ADME, organism-based; set-up: dose 10 mg/kg, route oral; details: read-out: Drug uptake
smiles,measurement,setting,value
COc1ccc(OC(=O)N(CC(=O)O)Cc2ccc(OCCc3nc(-c4ccccc4)oc3C)cc2)cc1 [MURAGLITAZAR],Drug uptake,[1],0.4%
same,Drug uptake,[2],3.7%
same,Drug uptake,Plasma [3],0.2%
same,Drug uptake,Hepatocyte [4],< 0.2%
same,Drug uptake,[5],0.03%
same,Drug uptake,[6],0.04%
same,Drug uptake,Plasma [7],0.2%
same,Drug uptake,Hepatocyte [8],12%
same,Drug uptake,Plasma [9],0.2%
same,Drug uptake,Plasma [10],0.1%
same,Drug uptake,Hepatocyte [11],1.6%
same,Drug uptake,Plasma [12],1%
same,Drug uptake,[13],< 0.2%
same,Drug uptake,[14],0.56%
same,dose excreted at 24 h,[15],13.2%
same,Drug uptake,[16],2.8%
same,Drug uptake,Hepatocyte [17],7.5%
same,Drug uptake,[18],0.18%
same,Drug uptake,Plasma [19],1%
same,Tmax,[20],1 h
same,dose excreted at 96 h,[21],75%
same,Drug uptake,Hepatocyte [22],0.2%
same,Drug uptake,Hepatocyte [23],0.9%
same,Drug uptake,Plasma [24],15%
same,Drug uptake,Plasma [25],0.4%
same,Drug uptake,[26],7.9%
same,Drug uptake,Hepatocyte [27],< 0.2%
same,Cmax,Cynomolgus monkey [28],7.1 ugequiv/ml
same,half-life,[29],3.8 h
same,Drug uptake,Plasma [30],1%
same,Drug uptake,Rattus norvegicus [31],0.22%
same,Drug uptake,[32],12%
same,Drug uptake,[33],0.06%
same,Drug uptake,[34],0.38%
same,Drug uptake,[35],0.3%
same,Drug uptake,Plasma [36],< 0.05%
same,Drug uptake,Rattus norvegicus [37],< 0.01%
same,Drug uptake,Plasma [38],1%
same,Drug uptake,Hepatocyte [39],1.3%
same,Drug uptake,Plasma [40],0.2%
same,Drug uptake,[41],< 0.2%
same,Drug uptake,Plasma [42],2.5%
same,Drug uptake,Plasma [43],0.5%
same,AUC,Cynomolgus monkey [44],71 ugequiv.h/ml
same,Drug uptake,[45],0.068 mgequiv/ml
same,Drug uptake,Hepatocyte [46],< 0.2%
same,Drug uptake,Rattus norvegicus [47],9.65%
same,Drug uptake,Plasma [48],0.1%
same,Drug uptake,[49],0.56%
same,Drug uptake,Hepatocyte [50],0.5%
same,Drug uptake,Plasma [51],1.5%
same,Drug uptake,Plasma [52],1%
same,dose excreted at 8 h,[53],1.3%
